Measured values taken from publication PMC9675574 (JCI Insight, 2022).

Assays:
Type in all cases: biochemical
[1] = biological target: mouse trypsin isoform T9 (anionic trypsin) (Mus musculus, UniProt Q9QUK9); assay: biochemical; conditions: for kcat / Km: GPR-pNA, 24°C; for Ki: mean ± SD, n = 3
Protocol: (§1) Recombinant human and mouse trypsinogens were expressed in Escherichia coli BL21(DE3) (Invitrogen), refolded in vitro, and purified by ecotin affinity chromatography (Pharmacia FPLC), according to published protocols ([60], [63], [64]). Sulfated human trypsinogens were purified from archived samples of human pancreatic juice, as described previously, with minor modifications ([65], [66]). Briefly, 50 mg freeze-dried pancreatic juice was dissolved in 2 mL 10 mM HCl, clarified by centrifugation (21,000g, 5 minutes, 4°C), and loaded onto a MonoQ 5/50 GL column equilibrated with 20 mM Tris-HCl (pH 8.0). Proteins were eluted with a 0–0.5 M NaCl gradient at 1 mL/min flow rate for 30 minutes. The fractions containing the cationic and anionic trypsinogens were further purified with ecotin affinity chromatography. The concentration of trypsinogen preparations was estimated from their UV absorbance at 280 nm using the extinction coefficients reported previously for mouse trypsinogens ([64]) and 37,525, 38,890, and 41,535/M/cm for human cationic trypsinogen (PRSS1), anionic trypsinogen (PRSS2), and mesotrypsinogen (PRSS3), respectively. To activate trypsinogen to trypsin, approximately 1 μM solution was incubated at 37°C with 28.2 ng/mL human enterokinase (final concentration) in 0.1 M Tris-HCl (pH 8.0), 10 mM CaCl2, and 0.05% Tween 20 for 1 hour. The activation reaction was followed by measuring trypsin activity: 2 μL trypsin was diluted in 48 μL assay buffer [0.1 M Tris-HCl (pH 8.0), 1 mM CaCl2, and 0.05% Tween 20], and 150 μL of 200 μM GPR-pNA trypsin substrate (in assay buffer) was added. Substrate cleavage resulting in the release of the yellow p-nitroaniline was monitored for 1 minute in a Spectramax Plus 384 microplate reader at 405 nm.
(§2) Michaelis-Menten kinetic parameters of trypsin isoforms were determined with the chromogenic substrate GPR-pNA at 24°C. The trypsin concentration was 1 nM and the substrate concentration was varied typically between 1.56 and 200 μM in a final volume of 200 μL assay buffer. The substrate concentration range was 3.1–400 μM for mouse trypsin isoform T7 and 0.4–50 μM for mouse trypsin isoform T20. Km and kcat values were calculated from hyperbolic fits to plots of reaction velocity versus substrate concentration.
(§3) Michaelis-Menten kinetic parameters were then measured after adding 100 μL trypsin substrate, as described above. […] To determine the Ki, the Km values were plotted as a function of the inhibitor concentration, and the Ki was calculated by dividing the y axis intercept with the slope of the linear fit. This value corresponds to the negative of the x axis intercept. Alternatively, the substrate saturation curves obtained in the absence and presence of the increasing inhibitor concentrations were globally fitted to the competitive inhibition equation y = vmax × (x/[KmObs+ x]), where y is the reaction velocity, vmax is the maximal velocity, x is the substrate concentration, and KmObs = Km × (1 + [I]/Ki), where [I] is the inhibitor concentration. Experiments were performed 3 times and each experiment was analyzed separately. […] Kinetic analysis was performed with the Prism 8 program (GraphPad).

[2] = biological target: T1, human trypsin isoform PRSS2 (anionic trypsin), recombinant (Homo sapiens, UniProt P07478); assay: Competitive inhibition kinetics of trypsin, GPR-pNA substrate; conditions: for kcat / Km: GPR-pNA, 24°C; for Ki: mean ± SD, n = 3
T1 construct: made in house; host or cells: Escherichia coli BL21(DE3)
T1 sequence (P07478 24-247): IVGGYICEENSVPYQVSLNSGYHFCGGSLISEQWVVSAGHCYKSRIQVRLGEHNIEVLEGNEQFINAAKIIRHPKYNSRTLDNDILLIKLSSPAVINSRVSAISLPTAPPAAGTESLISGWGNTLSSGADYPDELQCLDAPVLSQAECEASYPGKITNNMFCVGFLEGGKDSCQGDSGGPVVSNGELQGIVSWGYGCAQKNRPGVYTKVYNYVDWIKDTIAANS
Protocol: as §1, §2, §3

[3] = biological target: T2, sulfated human trypsin PRSS2-SO4 purified from pancreatic juice (Homo sapiens, UniProt P07478); assay: as above; conditions: for kcat / Km: GPR-pNA, 24°C; for Ki: mean ± SD, n = 3
T2 construct: from tissue; host or cells: human pancreatic juice
T2 sequence (P07478 24-247): as above
Protocol: as §1, §2, §3

[4] = biological target: T3, human trypsin isoform PRSS3 (mesotrypsin) (Homo sapiens, UniProt P35030); assay: as above; conditions: for kcat: GPR-pNA, 24°C; for Ki: mean ± SD, n = 3
T3 construct: made in house; host or cells: Escherichia coli BL21(DE3)
T3 sequence (P35030 81-304 limits assumed): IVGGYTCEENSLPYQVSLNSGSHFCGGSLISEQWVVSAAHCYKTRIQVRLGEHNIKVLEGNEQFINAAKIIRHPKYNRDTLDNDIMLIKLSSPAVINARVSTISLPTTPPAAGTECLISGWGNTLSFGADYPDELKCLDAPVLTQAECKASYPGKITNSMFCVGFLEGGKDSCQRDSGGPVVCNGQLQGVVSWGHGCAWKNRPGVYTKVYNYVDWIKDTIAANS
Protocol: as §1, §2, §3

[5] = biological target: T4, sulfated human trypsin PRSS1-SO4 purified from pancreatic juice (Homo sapiens, UniProt P07477); assay: as above; conditions: for kcat / Km: GPR-pNA, 24°C; for Ki: mean ± SD, n = 3
T4 construct: from tissue; host or cells: human pancreatic juice
Protocol: as §1, §2, §3

[6] = biological target: T5, mouse trypsin isoform T20 (anionic trypsin) (Mus musculus, UniProt P07146); assay: as above; conditions: for kcat / Km: GPR-pNA, 24°C; for Ki: mean ± SD, n = 3
T5 construct: made in house; host or cells: Escherichia coli BL21(DE3)
T5 sequence (P07146 24-246): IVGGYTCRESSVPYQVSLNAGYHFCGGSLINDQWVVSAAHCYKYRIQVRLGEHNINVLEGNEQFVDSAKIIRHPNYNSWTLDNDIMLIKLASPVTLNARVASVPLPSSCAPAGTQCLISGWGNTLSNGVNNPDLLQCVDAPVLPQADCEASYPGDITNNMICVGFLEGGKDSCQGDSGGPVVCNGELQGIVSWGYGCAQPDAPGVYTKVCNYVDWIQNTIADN
Protocol: as §1, §2, §3

[7] = biological target: T6, human trypsin isoform PRSS1 (cationic trypsin), recombinant (Homo sapiens, UniProt P07477); assay: as above; conditions: for kcat / Km: GPR-pNA, 24°C; for Ki: mean ± SD, n = 3
T6 construct: made in house; host or cells: Escherichia coli BL21(DE3)
Protocol: as §1, §2, §3

Sequence of mouse trypsin isoform T9 (anionic trypsin) (Q9QUK9 24-246): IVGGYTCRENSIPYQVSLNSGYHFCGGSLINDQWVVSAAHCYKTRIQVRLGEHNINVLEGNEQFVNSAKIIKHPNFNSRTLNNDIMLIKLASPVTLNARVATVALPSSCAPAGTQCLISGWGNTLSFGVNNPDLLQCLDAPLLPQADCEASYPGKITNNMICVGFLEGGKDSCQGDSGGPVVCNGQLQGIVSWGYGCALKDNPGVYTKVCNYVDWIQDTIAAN

SMILES: N=C(N)c1ccccc1 [benzamidine]
- kcat ([1]; 12.5 μM benzamidine): 110 ± 3.4 per second
- kcat ([1]; 25 μM benzamidine): 111.4 ± 2.8 per second
- kcat ([1]; 37.5 μM benzamidine): 114.8 ± 2.8 per second
- kcat ([1]; 50 μM benzamidine): 112.3 ± 4.5 per second
- Ki [1]: 6.8 ± 1 µM
- kcat ([2]; 25 μM benzamidine): 78.7 ± 1.7 per second
- kcat ([2]; 50 μM benzamidine): 78.4 ± 1.8 per second
- kcat ([2]; 75 μM benzamidine): 82.1 ± 2.4 per second
- kcat ([2]; 100 μM benzamidine): 78.3 ± 4.5 per second
- Ki ([2]; Ki benzamidine, Global fit): 8.9 ± 0.7 µM
- Ki ([2]; Ki benzamidine, Individual fit): 8.6 ± 2.2 µM
- kcat ([3]; 12.5 μM benzamidine): 64.8 ± 1.6 per second
- kcat ([3]; 25 μM benzamidine): 64.3 ± 1.4 per second
- kcat ([3]; 37.5 μM benzamidine): 64.5 ± 1.5 per second
- kcat ([3]; 50 μM benzamidine): 69.3 ± 0.3 per second
- Ki ([3]; Ki benzamidine, Global fit): 4.2 ± 0.7 µM
- Ki ([3]; Ki benzamidine, Individual fit): 3.3 ± 0.5 µM
- kcat ([4]; 25 μM benzamidine): 211.9 ± 8.6 per second
- kcat ([4]; 50 μM benzamidine): 214.2 ± 4.7 per second
- kcat ([4]; 75 μM benzamidine): 201.3 ± 8 per second
- kcat ([4]; 100 μM benzamidine): 205.7 ± 6.3 per second
- Ki ([4]; Ki benzamidine, Global fit): 13.3 ± 0.8 µM
- Ki ([4]; Ki benzamidine, Individual fit): 15.5 ± 2.3 µM
- kcat ([5]; 12.5 μM benzamidine): 104.1 ± 2.8 per second
- kcat ([5]; 25 μM benzamidine): 112.1 ± 4.9 per second
- kcat ([5]; 37.5 μM benzamidine): 108.4 ± 5.3 per second
- kcat ([5]; 50 μM benzamidine): 113.6 ± 7.2 per second
- Ki ([5]; Ki benzamidine, Global fit): 10.5 ± 0.9 µM
- Ki ([5]; Ki benzamidine, Individual fit): 8.3 ± 2.2 µM
- kcat ([6]; 12.5 μM benzamidine): 65 ± 1 per second
- kcat ([6]; 25 μM benzamidine): 62.1 ± 1.8 per second
- kcat ([6]; 37.5 μM benzamidine): 64.7 ± 2.1 per second
- kcat ([6]; 50 μM benzamidine): 65.6 ± 2.1 per second
- Ki ([6]; Ki benzamidine, Global fit): 7.6 ± 0.5 µM
- Ki ([6]; Ki benzamidine, Individual fit): 6.9 ± 1.1 µM
- kcat ([7]; 25 μM benzamidine): 134.8 ± 1.7 per second
- kcat ([7]; 50 μM benzamidine): 121 ± 3.3 per second
- kcat ([7]; 75 μM benzamidine): 136.3 ± 9.2 per second
- kcat ([7]; 100 μM benzamidine): 143.2 ± 8.1 per second
- Ki ([7]; Ki benzamidine, Global fit): 22.5 ± 4 µM
- Ki ([7]; Ki benzamidine, Individual fit): 15.7 ± 4.7 µM

SMILES: [H]/N=C(/N)c1ccc(NCc2nc3cc(C(=O)N(CCC(=O)O)c4ccccn4)ccc3n2C)cc1 [dabigatran]
- Km ([1]; 50 nM dabigatran): 19.8 ± 2.7 µM
- kcat ([1]; 50 nM dabigatran): 75.8 ± 2 per second
- Km ([1]; 100 nM dabigatran): 28.3 ± 2.8 µM
- kcat ([1]; 100 nM dabigatran): 72.5 ± 2.6 per second
- Km ([1]; 150 nM dabigatran): 46.1 ± 2.4 µM
- kcat ([1]; 150 nM dabigatran): 78.4 ± 0.1 per second
- Km ([1]; 200 nM dabigatran): 56.7 ± 7.3 µM
- kcat ([1]; 200 nM dabigatran): 77.6 ± 2.5 per second
- Ki ([1]; Ki dabigatran, Global fit): 0.0358 ± 0.0035 µM
- Ki ([1]; Ki dabigatran, Individual fit): 0.0284 ± 0.0071 µM
- Km ([2]; 25 nM dabigatran): 23 ± 1.3 µM
- kcat ([2]; 25 nM dabigatran): 90.6 ± 2.6 per second
- Km ([2]; 50 nM dabigatran): 37.6 ± 0.6 µM
- kcat ([2]; 50 nM dabigatran): 89.1 ± 1.7 per second
- Km ([2]; 75 nM dabigatran): 46.8 ± 1.5 µM
- kcat ([2]; 75 nM dabigatran): 90.2 ± 2.3 per second
- Km ([2]; 100 nM dabigatran): 61.1 ± 6.1 µM
- kcat ([2]; 100 nM dabigatran): 87.5 ± 4.4 per second
- Ki ([2]; Ki dabigatran, Global fit): 0.0141 ± 0.0011 µM
- Ki ([2]; Ki dabigatran, Individual fit): 0.0179 ± 0.0033 µM
- Km ([3]; 25 nM dabigatran): 13 ± 0.5 µM
- kcat ([3]; 25 nM dabigatran): 63.4 ± 0.4 per second
- Km ([3]; 50 nM dabigatran): 23.5 ± 1.3 µM
- kcat ([3]; 50 nM dabigatran): 66.8 ± 1.6 per second
- Km ([3]; 75 nM dabigatran): 31.5 ± 0.4 µM
- kcat ([3]; 75 nM dabigatran): 63.8 ± 0.9 per second
- Km ([3]; 100 nM dabigatran): 42.4 ± 3.5 µM
- kcat ([3]; 100 nM dabigatran): 67.2 ± 1.9 per second
- Ki ([3]; Ki dabigatran, Global fit): 0.0103 ± 0.0005 µM
- Ki ([3]; Ki dabigatran, Individual fit): 0.01 ± 0.0032 µM
- kcat ([4]; 50 nM dabigatran): 214.6 ± 4.9 per second
- kcat ([4]; 100 nM dabigatran): 215.5 ± 4.6 per second
- kcat ([4]; 150 nM dabigatran): 217.5 ± 10.8 per second
- kcat ([4]; 200 nM dabigatran): 220.5 ± 4.1 per second
- Ki ([4]; Ki dabigatran, Global fit): 0.0516 ± 0.0021 µM
- Ki ([4]; Ki dabigatran, Individual fit): 0.0351 ± 0.0024 µM
- Km ([5]; 25 nM dabigatran): 21.4 ± 1.5 µM
- kcat ([5]; 25 nM dabigatran): 101 ± 2.3 per second
- Km ([5]; 50 nM dabigatran): 32.7 ± 3 µM
- kcat ([5]; 50 nM dabigatran): 105.5 ± 5.1 per second
- Km ([5]; 75 nM dabigatran): 42.8 ± 7.8 µM
- kcat ([5]; 75 nM dabigatran): 103.2 ± 4.2 per second
- Km ([5]; 100 nM dabigatran): 57 ± 2.1 µM
- kcat ([5]; 100 nM dabigatran): 104.7 ± 2.1 per second
- Ki ([5]; Ki dabigatran, Global fit): 0.0233 ± 0.002 µM
- Km ([6]; 50 nM dabigatran): 9.5 ± 1.3 µM
- kcat ([6]; 50 nM dabigatran): 52 ± 4 per second
- Km ([6]; 100 nM dabigatran): 19.5 ± 0.5 µM
- kcat ([6]; 100 nM dabigatran): 51.1 ± 1.7 per second
- Km ([6]; 150 nM dabigatran): 22.5 ± 2.5 µM
- kcat ([6]; 150 nM dabigatran): 48.7 ± 3.3 per second
- Km ([6]; 200 nM dabigatran): 28.5 ± 2.2 µM
- kcat ([6]; 200 nM dabigatran): 50 ± 6.3 per second
- Ki ([6]; Ki dabigatran, Global fit): 0.0226 ± 0.0007 µM
- Km ([7]; 25 nM dabigatran): 31.3 ± 3.6 µM
- kcat ([7]; 25 nM dabigatran): 90.8 ± 2.8 per second
- Km ([7]; 50 nM dabigatran): 50.2 ± 2.5 µM
- kcat ([7]; 50 nM dabigatran): 91.6 ± 4.8 per second
- Km ([7]; 75 nM dabigatran): 71.1 ± 4.2 µM
- kcat ([7]; 75 nM dabigatran): 95 ± 2.3 per second
- Km ([7]; 100 nM dabigatran): 88.7 ± 3.1 µM
- kcat ([7]; 100 nM dabigatran): 99.8 ± 3.3 per second
- Ki ([7]; Ki dabigatran, Global fit): 0.0282 ± 0.0045 µM
- Ki ([7]; Ki dabigatran, Individual fit): 0.021 ± 0.0023 µM
